Each block holds one molecule with its values, some of them ahead of it.
Tests used:
[1] = Oral bioavailability in Sprague-Dawley rat at 10 mg/kg measured during 1 to 24 hrs by LC-MS method; format: ADME, organism-based; details: Sprague-Dawley, in vivo
[2] = tested on: Rattus norvegicus; assay: Antiinflammatory activity in orally dosed Sprague-Dawley rat model of carrageenan-induced foot paw edema assessed as reduction in edema by plethysmometry; format: functional, organism-based
[3] = tested on: Rattus norvegicus; assay: Volume of distribution in Sprague-Dawley rat at 10 mg/kg, po measured during 1 to 24 hrs by LC-MS method; format: ADME, organism-based; set-up: dose 10 mg/kg, route oral; details: in vivo
[4] = Cmax in Sprague-Dawley rat at 5 mg/kg, iv measured during 1 to 24 hrs by LC-MS method; format: ADME, organism-based; set-up: dose 5 mg/kg, route intravenous; details: in vivo
[5] = tested on: Rattus norvegicus; assay: Antinociceptive activity in orally dosed Sprague-Dawley rat model of carrageenan-induced foot paw hyperalgesia assessed as paw withdrawal latency; format: functional, organism-based
[6] = tested on: Rattus norvegicus; assay: Half life in Sprague-Dawley rat at 5 mg/kg, iv measured during 1 to 24 hrs by LC-MS method; format: ADME, organism-based; set-up: dose 5 mg/kg, route intravenous; details: in vivo
[7] = tested on: Rattus norvegicus; assay: Antiinflammatory activity in orally dosed Sprague-Dawley rat model of carrageenan-induced air pouch inflammation assessed as reduction in PGE2 level by ELISA method; format: functional, organism-based
[8] = tested on: Rattus norvegicus; assay: (§1) AUC (0 to infinity) in Sprague-Dawley rat at 10 mg/kg, po measured during 1 to 24 hrs by LC-MS method; format: ADME, organism-based, Plasma; set-up: time infinity, dose 10 mg/kg, route oral; details: in vivo
[9] = tested on: Rattus norvegicus; assay: (§2) AUC (0 to infinity) in Sprague-Dawley rat at 5 mg/kg, iv measured during 1 to 24 hrs by LC-MS method; format: ADME, organism-based, Plasma; set-up: time infinity, dose 5 mg/kg, route intravenous; details: in vivo
[10] = Apparent oral clearance in Sprague-Dawley rat at 5 mg/kg, iv measured during 1 to 24 hrs by LC-MS method; format: ADME, organism-based; set-up: dose 5 mg/kg, route oral; details: in vivo
[11] = Volume of distribution in Sprague-Dawley rat at 5 mg/kg, iv measured during 1 to 24 hrs by LC-MS method; format: ADME, organism-based; set-up: dose 5 mg/kg, route intravenous; details: in vivo
[12] = Apparent oral clearance in Sprague-Dawley rat at 10 mg/kg, po measured during 1 to 24 hrs by LC-MS method; format: ADME, organism-based; set-up: dose 10 mg/kg, route oral; details: Sprague-Dawley, in vivo
[13] = tested on: Rattus norvegicus; assay: Antiarthritic activity in Lewis rat model of adjuvant-induced arthritis administrated by oral gavage once daily; format: functional
[14] = molecular target: Prostaglandin G/H synthase 1 (Homo sapiens, UniProt P23219); assay: Inhibition of human recombinant COX1 pre-incubated for 15 mins before fluorometric substrate addition by fluorescence based assay
[15] = molecular target: T1, Prostaglandin G/H synthase 2 (Homo sapiens, UniProt P35354); assay: Inhibition of human recombinant COX2 pre-incubated for 15 mins before fluorometric substrate addition by fluorescence based assay
T1 sequence (P35354 whole entry): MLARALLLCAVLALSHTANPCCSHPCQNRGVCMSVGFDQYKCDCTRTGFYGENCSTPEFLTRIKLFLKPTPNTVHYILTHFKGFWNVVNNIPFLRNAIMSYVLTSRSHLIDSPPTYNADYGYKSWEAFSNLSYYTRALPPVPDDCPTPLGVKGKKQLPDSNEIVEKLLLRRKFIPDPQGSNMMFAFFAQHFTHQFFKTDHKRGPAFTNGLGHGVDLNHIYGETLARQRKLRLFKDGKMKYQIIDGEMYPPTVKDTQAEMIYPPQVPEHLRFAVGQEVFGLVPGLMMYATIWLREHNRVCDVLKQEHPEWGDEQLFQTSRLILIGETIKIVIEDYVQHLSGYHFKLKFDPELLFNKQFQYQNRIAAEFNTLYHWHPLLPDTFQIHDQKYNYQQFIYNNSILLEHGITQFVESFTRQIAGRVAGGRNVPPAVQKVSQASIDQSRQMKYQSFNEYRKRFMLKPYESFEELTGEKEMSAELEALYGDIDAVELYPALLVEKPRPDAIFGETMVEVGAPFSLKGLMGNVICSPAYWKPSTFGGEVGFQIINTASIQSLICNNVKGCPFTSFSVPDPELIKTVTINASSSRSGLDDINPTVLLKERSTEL

[16] = Cmax in Sprague-Dawley rat at 1 mg/kg, iv measured during 1 to 24 hrs by LC-MS method; format: ADME, organism-based; set-up: dose 1 mg/kg, route intravenous; details: in vivo
[17] = (§3) AUC (0 to infinity) in Sprague-Dawley rat at 2.5 mg/kg, po measured during 1 to 24 hrs by LC-MS method; format: ADME, organism-based, Plasma; set-up: dose 2.5 mg/kg, route oral, time infinity; details: Sprague-Dawley, plasma
[18] = Volume of distribution in Sprague-Dawley rat at 1 mg/kg, iv measured during 1 to 24 hrs by LC-MS method; format: ADME, organism-based; set-up: dose 1 mg/kg, route intravenous; details: in vivo
[19] = tested on: Rattus norvegicus; assay: Volume of distribution in Sprague-Dawley rat at 2.5 mg/kg, po measured during 1 to 24 hrs by LC-MS method; format: ADME, organism-based; set-up: dose 2.5 mg/kg, route oral; details: in vivo
[20] = Oral bioavailability in Sprague-Dawley rat at 2.5 mg/kg measured during 1 to 24 hrs by LC-MS method; format: ADME, organism-based; details: Sprague-Dawley, in vivo
[21] = Apparent oral clearance in Sprague-Dawley rat at 2.5 mg/kg, po measured during 1 to 24 hrs by LC-MS method; format: ADME, organism-based; set-up: dose 2.5 mg/kg, route oral; details: Sprague-Dawley, in vivo
[22] = tested on: Rattus norvegicus; assay: Tmax in Sprague-Dawley rat at 2.5 mg/kg, po measured during 1 to 24 hrs by LC-MS method; format: ADME, organism-based; set-up: dose 2.5 mg/kg, route oral; details: in vivo
[23] = (§4) AUC (0 to infinity) in Sprague-Dawley rat at 1 mg/kg, iv measured during 1 to 24 hrs by LC-MS method; format: ADME, organism-based, Plasma; set-up: time infinity, dose 1 mg/kg, route intravenous; details: Sprague-Dawley, plasma
[24] = tested on: Rattus norvegicus; assay: Half life in Sprague-Dawley rat at 2.5 mg/kg, po measured during 1 to 24 hrs by LC-MS method; format: ADME, organism-based; set-up: dose 2.5 mg/kg, route oral; details: in vivo
[25] = Apparent oral clearance in Sprague-Dawley rat at 1 mg/kg, iv measured during 1 to 24 hrs by LC-MS method; format: ADME, organism-based; set-up: dose 1 mg/kg, route oral; details: in vivo
[26] = Cmax in Sprague-Dawley rat at 2.5 mg/kg, po measured during 1 to 24 hrs by LC-MS method; format: ADME, organism-based; set-up: dose 2.5 mg/kg, route oral; details: in vivo
[27] = tested on: Rattus norvegicus; assay: Half life in Sprague-Dawley rat at 1 mg/kg, iv measured during 1 to 24 hrs by LC-MS method; format: ADME, organism-based; set-up: dose 1 mg/kg, route intravenous; details: in vivo
[28] = tested on: Rattus norvegicus; assay: as §3; format: ADME, organism-based, Plasma; set-up: dose 2.5 mg/kg, route oral, time infinity; details: in vivo
[29] = tested on: Rattus norvegicus; assay: as §4; format: ADME, organism-based, Plasma; set-up: time infinity, dose 1 mg/kg, route intravenous; details: in vivo
[30] = tested on: Rattus norvegicus; assay: Tmax in Sprague-Dawley rat at 10 mg/kg, po measured during 1 to 24 hrs by LC-MS method; format: ADME, organism-based; set-up: dose 10 mg/kg, route oral; details: in vivo
[31] = as §1; format: ADME, organism-based, Plasma; set-up: time infinity, dose 10 mg/kg, route oral; details: Sprague-Dawley, plasma
[32] = tested on: Rattus norvegicus; assay: Half life in Sprague-Dawley rat at 10 mg/kg, po measured during 1 to 24 hrs by LC-MS method; format: ADME, organism-based; set-up: dose 10 mg/kg, route oral; details: in vivo
[33] = Cmax in Sprague-Dawley rat at 10 mg/kg, po measured during 1 to 24 hrs by LC-MS method; format: ADME, organism-based; set-up: dose 10 mg/kg, route oral; details: in vivo
[34] = as §2; format: ADME, organism-based, Plasma; set-up: time infinity, dose 5 mg/kg, route intravenous; details: Sprague-Dawley, plasma
[35] = Tmax in Sprague-Dawley rat at 25 mg/kg, po measured during 1 to 24 hrs by LC-MS method; format: ADME, organism-based; set-up: dose 25 mg/kg, route oral; details: in vivo
[36] = Apparent oral clearance in Sprague-Dawley rat at 25 mg/kg, po measured during 1 to 24 hrs by LC-MS method; format: ADME, organism-based; set-up: dose 25 mg/kg, route oral; details: in vivo
[37] = AUC (0 to infinity) in Sprague-Dawley rat at 25 mg/kg, po measured during 1 to 24 hrs by LC-MS method; format: ADME, organism-based; set-up: time infinity, dose 25 mg/kg, route oral; details: plasma
[38] = Cmax in Sprague-Dawley rat at 25 mg/kg, po measured during 1 to 24 hrs by LC-MS method; format: ADME, organism-based; set-up: dose 25 mg/kg, route oral; details: in vivo
[39] = Half life in Sprague-Dawley rat at 25 mg/kg, po measured during 1 to 24 hrs by LC-MS method; format: ADME, organism-based; set-up: dose 25 mg/kg, route oral; details: in vivo
[40] = tested on: Rattus norvegicus; assay: Volume of distribution in Sprague-Dawley rat at 25 mg/kg, po measured during 1 to 24 hrs by LC-MS method; format: ADME, organism-based; set-up: dose 25 mg/kg, route oral; details: in vivo
[41] = Oral bioavailability in Sprague-Dawley rat at 25 mg/kg measured during 1 to 24 hrs by LC-MS method; format: ADME, organism-based; details: in vivo

Prostaglandin G/H synthase 1, sequence (P23219 whole entry): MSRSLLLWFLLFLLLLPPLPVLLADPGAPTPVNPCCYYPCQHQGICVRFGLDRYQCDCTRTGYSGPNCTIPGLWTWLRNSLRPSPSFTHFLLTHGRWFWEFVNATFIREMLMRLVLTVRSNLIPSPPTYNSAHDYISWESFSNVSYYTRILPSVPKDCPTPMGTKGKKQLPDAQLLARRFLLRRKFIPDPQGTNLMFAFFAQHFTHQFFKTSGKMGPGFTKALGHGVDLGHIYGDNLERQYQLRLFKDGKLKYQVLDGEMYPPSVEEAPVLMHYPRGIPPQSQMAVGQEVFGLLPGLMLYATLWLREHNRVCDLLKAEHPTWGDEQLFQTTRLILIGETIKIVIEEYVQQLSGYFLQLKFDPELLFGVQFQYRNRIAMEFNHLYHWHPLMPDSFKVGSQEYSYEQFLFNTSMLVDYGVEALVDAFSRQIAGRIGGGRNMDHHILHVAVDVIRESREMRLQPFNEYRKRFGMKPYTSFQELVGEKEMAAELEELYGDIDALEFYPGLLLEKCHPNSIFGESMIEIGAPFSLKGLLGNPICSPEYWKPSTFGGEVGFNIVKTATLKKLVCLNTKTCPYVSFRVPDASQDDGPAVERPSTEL

bioavailability [1]: 92.8% | EC50 [2]: 5.18 mg/kg | Vd [3]: 0.26 L/kg | Cmax [4]: 38800 ng/mL | EC50 [5]: 2.77 mg/kg | t1/2 [6]: 2.525 h | EC50 [7]: 0.47 mg/kg | AUC [8]: 118331.438 ng·h/mL | AUC [9]: 63759.714 ng·h/mL | CL/F [10]: 1.32 mL/min/kg | Vd [11]: 0.287 L/kg | CL/F [12]: 1.43 mL/min/kg
Structure (SMILES): [2H]C([2H])([2H])c1cc2c(c(C([2H])([2H])[2H])c1Cl)C=C(C(=O)O)C(C(F)(F)F)O2 (stereo not given)

EC50 [2]: 2.81 mg/kg | EC50 [5]: 5 mg/kg | EC50 [7]: 0.69 mg/kg
Structure (SMILES): Cc1ccc(-c2cc(C(F)(F)F)nn2-c2ccc(S(N)(=O)=O)cc2)cc1 [CELECOXIB]
ED50 [13]: 1.57 mg/kg

IC50 [14]: > 100 µM | IC50 [15]: 0.19 µM | Cmax [16]: 16700 ng/mL | AUC(0-inf) [17]: 12500 ng·h/mL | Vd [18]: 0.38 L/kg | Vd [19]: 1.13 L/kg | bioavailability [20]: 56.7% | CL/F [21]: 3.52 mL/min/kg | Tmax [22]: 0.375 h | AUC(0-inf) [23]: 8840 ng·h/mL | t1/2 [24]: 3.53 h | CL/F [25]: 1.98 mL/min/kg | Cmax [26]: 5340 ng/mL | t1/2 [27]: 2.3 h
Structure (SMILES): Cc1cc2c(c(C)c1Br)C=C(C(=O)O)C(C(F)(F)F)O2 (stereo not given)

IC50 [14]: > 100 µM
Structure (SMILES): [2H]C([2H])([2H])c1c(Br)c2c(c(C([2H])([2H])[2H])c1Br)C=C(C(=O)O)C(C(F)(F)F)O2 (stereo not given)

Cmax [16]: 4130 ng/mL | AUC [28]: 4627.624 ng·h/mL | EC50 [7]: 0.61 mg/kg | Vd [18]: 0.59 L/kg | bioavailability [20]: 128% | CL/F [21]: 9.12 mL/min/kg | Tmax [22]: 0.25 h | AUC [29]: 1440.446 ng·h/mL | t1/2 [24]: 1.75 h | CL/F [25]: 11.8 mL/min/kg | Cmax [26]: 2720 ng/mL | t1/2 [27]: 0.59 h
Structure (SMILES): Cc1cc(Cl)cc2c1OC(C(F)(F)F)C(C(=O)O)=C2 (stereo not given)

bioavailability [1]: 67.5% | Vd [3]: 2.314 L/kg | Tmax [30]: 0.75 h | Cmax [4]: 37200 ng/mL | t1/2 [6]: 5.78 h | AUC(0-inf) [31]: 42200 ng·h/mL | t1/2 [32]: 6.68 h | Cmax [33]: 8150 ng/mL | AUC(0-inf) [34]: 31300 ng·h/mL | CL/F [10]: 2.67 mL/min/kg | Vd [11]: 1.35 L/kg | CL/F [12]: 4.03 mL/min/kg
Structure (SMILES): CC(C)(C)c1cc2c(cc1Cl)C=C(C(=O)O)[C@@H](C(F)(F)F)O2 [TIGEMOCOXIB]

Structure (SMILES): Cc1c(Br)c(C)c2c(c1Br)OC(C(F)(F)F)C(C(=O)O)=C2 (stereo not given)
IC50 [14]: > 100 µM | IC50 [15]: 0.069 µM

Tmax [35]: 1.62 h | CL/F [36]: 0.817 mL/min/kg | IC50 [14]: > 100 µM | AUC(0-inf) [37]: 511000 ng·h/mL | Cmax [38]: 29500 ng/mL | Cmax [4]: 37200 ng/mL | half-life [39]: 9.54 h | Vd [40]: 0.678 L/kg | t1/2 [6]: 5.446 h | AUC(0-inf) [34]: 131000 ng·h/mL | CL/F [10]: 0.633 mL/min/kg | Vd [11]: 0.301 L/kg | bioavailability [41]: 78.6%
Structure (SMILES): CCc1cc(OC(F)(F)F)cc2c1OC(C(F)(F)F)C(C(=O)O)=C2 (stereo not given)

— ChEMBL document CHEMBL3351875, “Synthesis of Deuterated Benzopyran Derivatives as Selective COX-2 Inhibitors with Improved Pharmacokinetic Properties” (ACS Med Chem Lett, 2014)
